Measurements reported in patent publication US20210360924A1, “PLANT OR SEED COATING” (University of Southampton, priority 2017, published 2021).
Entries after “also recorded” stand apart in the source; their conditions may differ.

Tests used:
G. pallida J2s [1] = assay: Root invasion assay on potato hairy root cultures; assay type: in vivo, Globodera pallida; conditions: J2s pre-incubated 24 h with 100 μM compound
Experimental: J2s of G. pallida were first sterilised with 0.1% chlorhexidine digluconate, 0.5 mg/ml CTAB for 25 mins and washed three times with sterile 0.01% Tween-20. The J2s were then incubated with gentle agitation for 24 hours in water, 100 μM reserpine phosphate, 100 μM methiothepin, 100 μM CPA or 2 mM fluoxetine prior to inoculation of potato hairy root cultures with 25 J2s per infection point and 3 infection points per root system. Hairy root cultures were generated using Agrobacterium rhizogenes R1000 and multiplied. Individual root systems of equivalent size growing on 9 cm plates containing Murashige and Skoog basal medium (Duchefa, Suffolk, UK) with 2% sucrose were selected for inoculation. Nine to 11 replicate plates were used for each treatment or control. Roots were stained with acid fuchsin 13 days after infection and the number of nematodes in each root system counted. Each complete invasion assay was carried out on two separate occasions.

G. pallida J2s [2] = assay: G. pallida stylet thrusting assay; assay type: in vivo, Globodera pallida; conditions: for effect on stylet behaviour: concentrations up to 10 mM (data not shown); for stimulation of stylet thrusting by the compound itself: J2s in compound alone; for exposure time at which maximal stylet response was seen / maximally effective concentration for stylet thrusting / effect on S-shaped posture and reduced movement induced by fluoxetine: in vivo; for effect on stylet response to fluoxetine / effect on stylet response to exogenous serotonin: 24 h presoak
Experimental: Stylet thrusting assays were conducted in 20 mM HEPES buffered ddH2O, with pH adjusted to 7.4 with NaOH. J2s were pipetted into 3 ml of the test solutions in 30 mm petri dishes and the number of stylet thrusts per minute was counted at various time points as stated in figure legends. A single movement of the stylet knob forwards and then backwards to its original position was counted as one stylet thrust. Control assays were conducted in the presence of either 20 mM HEPES alone or 20 mM HEPES with drug vehicle, as indicated in figure legends. All assays were conducted at room temperature (20-22° C.). All drug solutions were made up on the day of use. Each solution contained 0.01% bovine serum albumin to prevent worms from sticking to the Petri dish. Reserpine was dissolved in 100% acetone and then 1 in 200 dilution was made using Hepes buffer (pH 7.4). […] Final concentration 50 μM reserpine.
For experiments in which J2s were pre-treated with reserpine phosphate or CPA, the worms were pre-soaked in the drug solutions for 24 hours.

C. elegans TPH-1 = assay: Pharyngeal pumping of C. elegans on food with CPA; assay type: in vivo
Experimental: (§1) Experiments were performed on one day old age synchronised worms by picking L4 stage a day before the assay. Due to the translucent nature of the worm, pharyngeal pumping may be scored in the intact animals by counting the movements of the grinder in the terminal bulb: one complete up and down motion is counted as a single pharyngeal pump. The number of pharyngeal pumps was counted on E. coli OP50 in N2, in the mutants tph-1 (mg280), ser-7 (tm1325), cat-1 (ok411) and in mutants with ectopic expression of C. elegans (ce) or G. pallida (ppn) tph-1, ser-7 or cat-1 in all of the neurons (Psnb-1 promoter).
(§2) To test the effects of CPA (4-chloro-DL-phenylalanine methyl ester hydrochloride) on pharyngeal pumping one day old adult C. elegans for N2, tph-1 (mg280) and tph-1-1 (mg280) with ectopic expression of C. elegans (ce) or G. pallida (Gpa) tph-1 were placed onto E. coli OP50 containing CPA on NGM plates and the number of pharyngeal pumps on food per min was scored after 2 and 18 hours.

G. pallida TPH-1 = assay: Pharyngeal pumping on food with CPA, tph-1 (mg280) expressing G. pallida tph-1; assay type: in vivo, Globodera pallida; conditions: tph-1 mutant expressing G. pallida tph-1
Experimental: as §1, §2

C. elegans = assay: Pharyngeal pumping of intact C. elegans off food with fluoxetine; assay type: in vivo, Caenorhabditis elegans
Experimental: as §1
To test the effects of fluoxetine one day old C. elegans for N2, cat-1 (ok411) and cat-1 (ok411) with ectopic expression of C. elegans (ce) or G. pallida (Gpa) cat-1 were placed onto unseeded NGM plates containing fluoxetine and the number of pharyngeal pumps per min was scored after 1 h and 18 h.

G. pallida = assay: Hatching of J2s from cysts/eggs; parameters: species or system Globodera pallida; conditions: in vivo
C. elegans SER-7 = molecular target: T1, C. elegans SER-7 (Caenorhabditis elegans, UniProt Q22895); assay: Cut head pharyngeal pumping assay
T1 sequence (Q22895 1-435): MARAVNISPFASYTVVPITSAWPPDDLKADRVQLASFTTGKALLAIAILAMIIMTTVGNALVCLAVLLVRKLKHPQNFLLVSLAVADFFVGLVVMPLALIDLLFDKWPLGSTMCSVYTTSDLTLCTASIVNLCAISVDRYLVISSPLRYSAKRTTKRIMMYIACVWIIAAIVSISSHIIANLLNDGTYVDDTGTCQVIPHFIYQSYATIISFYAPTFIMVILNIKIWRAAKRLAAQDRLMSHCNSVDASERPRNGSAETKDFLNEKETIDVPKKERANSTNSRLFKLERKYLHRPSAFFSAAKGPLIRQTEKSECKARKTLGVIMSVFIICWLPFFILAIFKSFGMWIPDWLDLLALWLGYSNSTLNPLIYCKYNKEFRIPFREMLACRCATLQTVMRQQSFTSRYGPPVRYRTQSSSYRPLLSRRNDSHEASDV
Experimental: Additionally, an intact pharynx containing a terminal bulb was dissected from the rest of the worm with a razor blade. The pharyngeal preparation was placed into 3 ml of Dent's saline (with 0.1% BSA and the drugs 5-HT or methiothepin) in a 25 mm Petri dish. Pharyngeal pumps were scored visually, as for the intact worms, for 1 min. For controls, the pharyngeal pumping was scored in Dent's saline (0.1% BSA) without drugs with appropriate vehicle controls.

G. pallida SER-7 = G. pallida SER-7 (Globodera pallida, UniProt A0A183BS20, DEL280-286/G462A/H333Q/S454N/S6T/Y334H); assay: Cut head pharyngeal pumping assay, ser-7 (tm1325) expressing Gpa-ser-7; conditions: 100 nM; transgenics expressing G. pallida ser-7; 100 μM serotonin
C. elegans MOD-1 = assay: Thrashing paralysis assay (serotonin-induced paralysis), wild type; assay type: in vivo, Caenorhabditis elegans; conditions: wild type worms; 10 μM methiothepin; 33 mM serotonin
Experimental: (§3) For the methiothepin treatment group, 10 μM methiothepin was included in the wells of the microtitre plate. Wild type (N2), mod-1 (ok103), and the transgenic strains expressing gpa-mod-1 in mod-1 (ok103) were tested.

G. pallida MOD-1 = assay: Thrashing paralysis assay, mod-1 (ok103) expressing G. pallida mod-1; assay type: in vivo, Globodera pallida; conditions: worms expressing G. pallida mod-1; 10 μM methiothepin; 33 mM serotonin
Experimental: as §3

G. pallida J2s [3] = assay: G. pallida dispersal (motility) assay on agar arena; assay type: in vivo, Globodera pallida; conditions: pre-incubation with 50 μM for 18 h
Experimental: Dispersal assays were performed on 5 cm plates filled with 10 ml of 2% agarose. […] For the reserpine assays worms were pre-soaked in the compound for 18 h. On the day of the assay 100 μl of potato root diffusate (PRD), ddH2O or drug solvents were spread onto the plates and the plates were sealed with the parafilm. The grid with six equal concentric circles was placed under the assay plates and the centre was marked with a dot. Around 50-100 G. pallida J2s or C. elegans L2 s were pipetted with 5 μl of ddH2O onto the centre (origin), the plate was re-sealed and the total number of worms was counted as soon as the liquid had absorbed. The number of J2s in each concentric circle was counted after 1, 2 and 24 hours.

G. pallida SER-7, sequence (A0A183BS20 whole entry, stated change not applied): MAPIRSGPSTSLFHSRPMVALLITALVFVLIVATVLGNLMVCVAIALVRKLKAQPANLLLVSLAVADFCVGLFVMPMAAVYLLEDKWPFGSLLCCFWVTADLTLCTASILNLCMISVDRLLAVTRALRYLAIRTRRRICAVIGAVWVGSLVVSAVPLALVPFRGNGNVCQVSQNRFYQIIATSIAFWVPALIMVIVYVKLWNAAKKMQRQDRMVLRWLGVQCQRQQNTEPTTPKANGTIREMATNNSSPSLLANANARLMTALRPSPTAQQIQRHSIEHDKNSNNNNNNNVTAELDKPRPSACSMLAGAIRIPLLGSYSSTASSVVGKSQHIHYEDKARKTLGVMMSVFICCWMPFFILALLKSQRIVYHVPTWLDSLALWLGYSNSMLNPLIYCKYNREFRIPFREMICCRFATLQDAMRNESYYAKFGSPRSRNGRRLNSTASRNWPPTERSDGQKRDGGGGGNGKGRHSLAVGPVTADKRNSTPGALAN

Structure (SMILES): COC(=O)C(N)Cc1ccc(Cl)cc1.Cl (racemic) [CPA, 4-chloro-DL-phenylalanine methyl ester hydrochloride]
- number of nematodes present in the roots 13 days after inoculation (root invasion) (G. pallida J2s [1]): significantly reduced
- stylet thrusting in response to fluoxetine (G. pallida J2s [2]; 10 mM CPA overnight, 2 mM fluoxetine 30 min): reduced stylet thrusting
- stylet thrusting in response to serotonin (G. pallida J2s [2]; 10 mM CPA overnight, 10 mM serotonin 30 min): maintained their response
- inhibition of pharyngeal pumping (C. elegans TPH-1; tph-1 mutant): did not cause any further reduction
- ability to inhibit pharyngeal pumping (C. elegans TPH-1; tph-1 mutant expressing C. elegans tph-1): restored
- inhibition of pharyngeal pumping (C. elegans TPH-1; wild type C. elegans, CPA 10 mM): significantly inhibited
- ability to inhibit pharyngeal pumping (G. pallida TPH-1): restored

Structure (SMILES): NCCc1ccc(O)c(O)c1 [Dopamine]
- effect on stylet behaviour (G. pallida J2s [2]): no effect

Structure (SMILES): CNCCC(Oc1ccc(C(F)(F)F)cc1)c1ccccc1 (stereo not drawn) [fluoxetine]
- stimulation of stylet thrusting by the compound itself (G. pallida J2s [2]): time-dependent and concentration-dependent stimulation; also recorded: stimulatory effects
- exposure time at which maximal stylet response was seen (G. pallida J2s [2]): 30 min
- maximally effective concentration for stylet thrusting (G. pallida J2s [2]): 2 mM
- shape of stylet concentration response curve (G. pallida J2s [2]; response after 1 h): bell-shaped
- stimulation of pharyngeal pumping in the absence of food (C. elegans; 1 mM and 2 mM, or longer exposure at 500 μM): did not cause a stimulation
- stimulation of pharyngeal pumping in the absence of food (C. elegans; C. elegans cat-1 mutant): not observed
- exposure time of maximal stimulation of pharyngeal pumping (C. elegans; absence of food): 1 h
- low dose stimulation of pharyngeal pumping (C. elegans; cat-1 mutant expressing ppn-cat-1 (G. pallida)): restored
- low dose stimulation of pharyngeal pumping (C. elegans; cat-1 mutant expressing wild-type C. elegans cat-1): restored
- stimulation of pharyngeal pumping in the absence of food (C. elegans; wild type, 5 to 500 μM): concentration-dependent

Structure (SMILES): CN(C)CCCN1c2ccccc2CCc2ccccc21 [imipramine]
- stimulation of stylet thrusting by the compound itself (G. pallida J2s [2]): stimulatory effects

Structure (SMILES): CSc1ccc2c(c1)C(N1CCN(C)CC1)Cc1ccccc1S2 (stereo not drawn) [methiothepin]
- number of nematodes present in the roots 13 days after inoculation (root invasion) (G. pallida J2s [1]): blocked
- antagonism of serotonin-induced stylet thrusting (G. pallida J2s [2]; G. pallida J2s): potent antagonist
- effect on S-shaped posture and reduced movement induced by fluoxetine (G. pallida J2s [2]): blocked
- emergence of J2s from eggs (hatching) (G. pallida): potently inhibited
- inhibition of stimulatory effect of serotonin on pumping (C. elegans SER-7; 100 nM, transgenics expressing C. elegans ser-7, 100 μM serotonin): around 50%
- inhibition of stimulatory effect of serotonin on pumping (G. pallida SER-7): around 50%
- effect on mod-1 dependent serotonin-induced paralysis (C. elegans MOD-1): blocked
- effect on mod-1 dependent serotonin-induced paralysis (G. pallida MOD-1): blocked

Structure (SMILES): NCC(O)c1ccc(O)cc1 (stereo not drawn) [octopamine]
- effect on stylet behaviour (G. pallida J2s [2]): no effect

Structure (SMILES): COC(=O)[C@H]1[C@H]2C[C@@H]3c4[nH]c5cc(OC)ccc5c4CCN3C[C@H]2C[C@@H](OC(=O)c2cc(OC)c(OC)c(OC)c2)[C@@H]1OC [reserpine, (3β,16β,17α,18β,20α)-11,17-Dimethoxy-18-[(3,4,5-trimethoxybenzoyl)oxy]yohimban-16-carboxylic acid methyl ester]
- number of nematodes present in the roots 13 days after inoculation (root invasion) (G. pallida J2s [1]): significantly decreased
- dispersal from origin of agar arena (motility) (G. pallida J2s [3]): significant reduction
- block of stimulatory effect of fluoxetine on stylet (G. pallida J2s [2]; 5 μM, 24 h soak, 2 mM fluoxetine): near-complete block
- recovery of fluoxetine-induced stylet response after washing (G. pallida J2s [2]; 50 μM for 24 h, then water wash up to 22 hours): No recovery
- block of stimulatory effect of fluoxetine on stylet (G. pallida J2s [2]; 50 μM, 24 h soak, 2 mM fluoxetine): near-complete block
- exposure time at which reduction of fluoxetine-stimulated stylet activity was evident (G. pallida J2s [2]; 50 μM, 2 mM fluoxetine): 4 h
- exposure time to full block of fluoxetine-stimulated stylet activity (G. pallida J2s [2]; 50 μM, 2 mM fluoxetine): 8 h
- exposure time to full inhibition of fluoxetine-stimulated stylet activity (G. pallida J2s [2]; 50 μM, 2 mM fluoxetine 30 mins (FIG. 14B)): 8 h
- effect on stylet response to fluoxetine (G. pallida J2s [2]; 2 mM fluoxetine 30 min): concentration-dependent inhibition
- effect on stylet response to fluoxetine (G. pallida J2s [2]; 2 mM fluoxetine 30 min, listed as Reserpine): potently blocked
- effect on stylet response to exogenous serotonin (G. pallida J2s [2]; 10 mM serotonin 30 min): no effect
- effect on stylet response to exogenous serotonin (G. pallida J2s [2]; 10 mM serotonin 30 min, listed as Reserpine): but not the response to serotonin
- lowest concentration giving significant reduction of fluoxetine-induced stylet activity (G. pallida J2s [2]; 24 h soak, 2 mM fluoxetine 30 min): 5 nM
- effect on S-shaped posture and reduced movement induced by fluoxetine (G. pallida J2s [2]): blocked
- independent stimulatory effect on stylet activity (G. pallida J2s [2]; reserpine alone): no independent stimulatory effect

Structure (SMILES): NCCc1c[nH]c2ccc(O)cc12 [serotonin, 5-hydroxytryptamine]
- stimulation of stylet thrusting by the compound itself (G. pallida J2s [2]): time-dependent and concentration-dependent stimulation
- exposure time at which maximal stylet response was seen (G. pallida J2s [2]): 30 min
- maximally effective concentration for stylet thrusting (G. pallida J2s [2]): 10 mM
- concentration above which stylet concentration-response curve reached maximum plateau (G. pallida J2s [2]; response after 1 h): above 2 mM
- EC50 (C. elegans SER-7; EC50, activation of pharyngeal pumping, transgenic psnb-1::Ce-ser-7a, cut head, 95% confidence 457 nM to 1.34 μM): 782 nM
- EC50 (C. elegans SER-7; EC50, increase in pharyngeal pumping, wild type worms, cut head, 95% confidence 164 nM to 304 nM): 223 nM
- pharyngeal pumping response (C. elegans SER-7; ser-7 (tm1325) mutants, cut head, up to 100 μM): did not respond

Structure (SMILES): NCCc1ccc(O)cc1 [tyramine]
- effect on stylet behaviour (G. pallida J2s [2]): no effect
